Assay [1] concerns the target Delta-type opioid receptor (Homo sapiens, UniProt P41143). Put plainly: SAR Analysis of Antagonists of the DOR Receptor using an Image-Based Assay - Set 3. [Related pubchem assays (depositor defined):AID1777, AID1785]. The class given is functional.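 Also: U2OS cells expressing DOR1 and beta-arrestin GFP stimulated with 100 nM SNC80; imaging of GFP-tagged beta-arrestin moving into spots after receptor activation.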
Assay [2] concerns the target T1, Kappa-type opioid receptor (Homo sapiens, UniProt P41145). Put plainly: SAR analysis of Antagonists of the Kappa Opioid Receptor (KOR) using an Image-Based Assay - Set 3. [Related pubchem assays (depositor defined):AID1777, AID1785]. The class given is functional.
Assay [3] concerns the target Mu-type opioid receptor (Homo sapiens, UniProt P35372). Put plainly: SAR Analysis of Antagonists of the MOR Receptor using an Image-Based Assay - Set 3. [Related pubchem assays (depositor defined):AID1777, AID1785, AID1786, AID1966, AID2133, AID2136, AID2284, AID2285, AID2420]. The class given is functional.
Assay [4] concerns the target T1, Kappa-type opioid receptor. Nature of the assay: SAR analysis of small molecule antagonists of the kappa opioid receptor via a luminescent beta-arrestin assay - Set 3. [Related pubchem assays (depositor defined):AID1777, AID1778, AID1785, AID1786, AID1966, AID2133, AID2136, AID2285, AID2495]. The class given is functional.
A short description of assay [5]: Luminescence Cell-Based Dose Response HTS to Identify Activators of Luciferase Translation or Activity in H4-C Neuroglioblastoma Cells. [Related pubchem assays: 1829 (Project Summary), 1814 (Primary HTS)]. The class given is functional.
Assay [6] can be described thus: Luminescence Cell-Based Dose Retest to Confirm Activators of 5'UTR Stem-Loop Driven Alpha-Synuclein mRNA Translation in H4 Neuroglioblastoma Cells. [Related pubchem assays (depositor defined):AID1813, AID1829]. The class given is functional.
A short description of assay [7]: Luminescence Cell-Based Dose Confirmation HTS to Identify Inhibitors of 5'UTR Stem-Loop Driven Alpha-Synuclein mRNA Translation in H4 Neuroglioblastoma Cells. [Related pubchem assays: 1827 (Project Summary), 1813 (Primary HTS)]. The class given is functional.
Assay [8] is described as follows: Luminescence Cell-Based Dose Response HTS to Identify Inhibitors of Luciferase Translation or Activity in H4-C Neuroglioblastoma Cells. [Related pubchem assays: 1813 (Primary HTS), 1827 (Project Summary)]. The class given is functional.
A short description of assay [9]: Luminescence Cell-Based Dose Response HTS to Identify Activators of 5'UTR Stem-Loop Driven Prion Protein mRNA Translation in H4-C Neuroglioblastoma Cells. [Related pubchem assays: 1829 (Project Summary), 1814 (Primary HTS)]. The class given is functional.
Assay [10] in a line: Luminescence Cell-Based Dose HTS Response to Identify Inhibitors of 5'UTR Stem-Loop Driven Prion Protein mRNA Translation in H4-C Neuroglioblastoma Cells. [Related pubchem assays (depositor defined):AID1814, AID1827]. The class given is functional.
The target in assay [11] is T2, Ubiquitin-conjugating enzyme E2 N (Homo sapiens, UniProt P61088).
T2 sequence (P61088 whole entry): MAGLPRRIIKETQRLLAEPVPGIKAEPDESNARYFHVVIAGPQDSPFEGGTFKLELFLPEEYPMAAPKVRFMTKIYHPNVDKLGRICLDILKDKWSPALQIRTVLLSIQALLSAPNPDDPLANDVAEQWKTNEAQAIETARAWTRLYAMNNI
The class given is functional.

For assay [12], the target named is T3, Bcl-2-related protein A1 (Mus musculus, UniProt Q07440).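 Also: confirmatory dose–response counterscreen on Bfl-1, used to check hits from a UBC13 polyubiquitin inhibitor campaign.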
T3 sequence (Q07440 whole entry): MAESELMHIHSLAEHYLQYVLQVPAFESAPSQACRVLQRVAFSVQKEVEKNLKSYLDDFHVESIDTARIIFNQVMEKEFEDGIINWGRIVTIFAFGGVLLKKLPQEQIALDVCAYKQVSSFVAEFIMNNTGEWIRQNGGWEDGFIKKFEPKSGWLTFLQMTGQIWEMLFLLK
The class given is functional.

Assay [13] has as its target T2, Ubiquitin-conjugating enzyme E2 N. The class given is functional. This is another data set of the same source.
Assay [14] deals with T4, Tyrosine-protein phosphatase non-receptor type 22 (Homo sapiens, UniProt Q9Y2R2).
T4 sequence (Q9Y2R2 whole entry): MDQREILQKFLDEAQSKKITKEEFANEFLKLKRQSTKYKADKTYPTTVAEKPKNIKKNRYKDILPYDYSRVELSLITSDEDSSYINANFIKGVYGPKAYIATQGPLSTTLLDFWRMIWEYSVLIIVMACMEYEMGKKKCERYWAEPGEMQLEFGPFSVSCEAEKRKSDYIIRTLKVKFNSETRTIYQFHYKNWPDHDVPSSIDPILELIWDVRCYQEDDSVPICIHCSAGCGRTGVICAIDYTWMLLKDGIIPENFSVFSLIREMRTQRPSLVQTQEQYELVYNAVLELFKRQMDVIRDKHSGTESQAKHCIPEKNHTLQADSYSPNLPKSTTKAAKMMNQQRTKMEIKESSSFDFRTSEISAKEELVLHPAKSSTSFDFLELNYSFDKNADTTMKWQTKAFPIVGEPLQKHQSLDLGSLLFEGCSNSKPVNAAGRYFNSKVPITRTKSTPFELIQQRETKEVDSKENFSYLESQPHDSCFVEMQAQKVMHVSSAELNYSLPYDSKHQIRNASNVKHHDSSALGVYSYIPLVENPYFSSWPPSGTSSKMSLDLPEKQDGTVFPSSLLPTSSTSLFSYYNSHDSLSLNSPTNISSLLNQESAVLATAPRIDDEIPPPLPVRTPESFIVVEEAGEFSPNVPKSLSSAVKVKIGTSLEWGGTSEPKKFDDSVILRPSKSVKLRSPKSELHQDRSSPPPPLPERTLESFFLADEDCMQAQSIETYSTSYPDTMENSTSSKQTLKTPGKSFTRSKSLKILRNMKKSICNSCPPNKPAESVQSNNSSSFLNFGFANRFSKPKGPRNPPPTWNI
Put plainly: SAR LYP1 Fluorescent Assay using OMFP substrate for In Vitro dose response studies - Set 2. [Related pubchem assays (depositor defined):AID1779, AID1784, AID2140, AID449726, AID488869]. The class given is functional.

The target in assay [15] is T4, Tyrosine-protein phosphatase non-receptor type 22. Put plainly: SAR LYP1 Fluorescent Assay using OMFP substrate for In Vitro dose response studies - Set 3. [Related pubchem assays (depositor defined):AID1779, AID1784, AID2140, AID2686]. The class given is functional.
Assay [16] shares this target. Put plainly: PubChem AID 2140.
The target is the same in assay [17]. Nature of the assay: LYP (PTPN22) phosphatase inhibitor potency, SAR follow-up, biochemical, pCAP fluorogenic substrate, fluorescence, set 3 (AID 449727). The class given is functional.
Assay [18] deals with Tyrosine-protein phosphatase non-receptor type 12 (Homo sapiens, UniProt Q05209). Nature of the assay: SAR Selectivity Analysis of small molecule inhibitors of PEST using pCAP in a fluorescence assay. [Related pubchem assays (depositor defined):AID1779, AID1784, AID2135]. The class given is functional.
Tyrosine-protein phosphatase non-receptor type 12, sequence (Q05209 whole entry): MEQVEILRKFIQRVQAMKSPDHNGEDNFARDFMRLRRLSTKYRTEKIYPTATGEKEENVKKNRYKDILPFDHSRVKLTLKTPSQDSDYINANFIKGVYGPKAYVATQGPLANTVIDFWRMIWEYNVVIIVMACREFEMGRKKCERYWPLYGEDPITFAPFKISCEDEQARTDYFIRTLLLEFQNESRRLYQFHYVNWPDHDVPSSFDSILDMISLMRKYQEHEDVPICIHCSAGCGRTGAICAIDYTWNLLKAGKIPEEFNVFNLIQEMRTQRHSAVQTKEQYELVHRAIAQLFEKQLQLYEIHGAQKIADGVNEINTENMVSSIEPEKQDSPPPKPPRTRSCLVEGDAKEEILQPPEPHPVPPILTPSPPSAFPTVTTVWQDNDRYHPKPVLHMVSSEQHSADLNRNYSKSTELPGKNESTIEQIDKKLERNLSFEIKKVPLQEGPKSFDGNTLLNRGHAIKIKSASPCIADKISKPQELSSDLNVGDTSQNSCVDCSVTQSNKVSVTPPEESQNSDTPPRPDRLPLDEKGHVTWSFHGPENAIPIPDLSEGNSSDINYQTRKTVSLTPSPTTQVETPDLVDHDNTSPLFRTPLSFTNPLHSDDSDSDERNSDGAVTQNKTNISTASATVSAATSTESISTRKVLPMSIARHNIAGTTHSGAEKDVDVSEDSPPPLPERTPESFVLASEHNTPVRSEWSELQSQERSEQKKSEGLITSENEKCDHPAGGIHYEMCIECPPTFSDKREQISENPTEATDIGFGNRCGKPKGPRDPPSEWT
The target in assay [19] is T4, Tyrosine-protein phosphatase non-receptor type 22. Put plainly: SAR LYP1 Fluorescent Assay using pCAP substrate for In Vitro dose response studies - Set 2. [Related pubchem assays (depositor defined):AID1779, AID1784, AID2135, AID449727]. The class given is functional.
The target is the same in assay [20]. Put plainly: PubChem AID 2135.
Assay [21] concerns the target T5, Tyrosine-protein phosphatase non-receptor type 7 (Homo sapiens, UniProt P35236).
T5 sequence (P35236 whole entry): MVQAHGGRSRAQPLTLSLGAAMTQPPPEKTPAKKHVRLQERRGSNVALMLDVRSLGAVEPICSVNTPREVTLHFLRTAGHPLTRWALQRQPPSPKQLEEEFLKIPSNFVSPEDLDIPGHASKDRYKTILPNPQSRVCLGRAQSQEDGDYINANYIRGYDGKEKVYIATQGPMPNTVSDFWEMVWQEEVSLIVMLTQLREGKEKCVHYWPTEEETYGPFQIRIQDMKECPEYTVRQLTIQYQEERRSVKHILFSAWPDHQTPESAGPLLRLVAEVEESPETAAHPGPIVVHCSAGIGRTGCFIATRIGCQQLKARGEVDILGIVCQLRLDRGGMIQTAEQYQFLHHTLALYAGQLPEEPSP
Nature of the assay: HePTP (PTPN7) phosphatase inhibitor potency, SAR follow-up, biochemical, set 2 (AID 449736). The class given is functional.

Assay [22] deals with T6, Hexokinase HKDC1 (Homo sapiens, UniProt Q2TB90).
T6 sequence (Q2TB90 whole entry): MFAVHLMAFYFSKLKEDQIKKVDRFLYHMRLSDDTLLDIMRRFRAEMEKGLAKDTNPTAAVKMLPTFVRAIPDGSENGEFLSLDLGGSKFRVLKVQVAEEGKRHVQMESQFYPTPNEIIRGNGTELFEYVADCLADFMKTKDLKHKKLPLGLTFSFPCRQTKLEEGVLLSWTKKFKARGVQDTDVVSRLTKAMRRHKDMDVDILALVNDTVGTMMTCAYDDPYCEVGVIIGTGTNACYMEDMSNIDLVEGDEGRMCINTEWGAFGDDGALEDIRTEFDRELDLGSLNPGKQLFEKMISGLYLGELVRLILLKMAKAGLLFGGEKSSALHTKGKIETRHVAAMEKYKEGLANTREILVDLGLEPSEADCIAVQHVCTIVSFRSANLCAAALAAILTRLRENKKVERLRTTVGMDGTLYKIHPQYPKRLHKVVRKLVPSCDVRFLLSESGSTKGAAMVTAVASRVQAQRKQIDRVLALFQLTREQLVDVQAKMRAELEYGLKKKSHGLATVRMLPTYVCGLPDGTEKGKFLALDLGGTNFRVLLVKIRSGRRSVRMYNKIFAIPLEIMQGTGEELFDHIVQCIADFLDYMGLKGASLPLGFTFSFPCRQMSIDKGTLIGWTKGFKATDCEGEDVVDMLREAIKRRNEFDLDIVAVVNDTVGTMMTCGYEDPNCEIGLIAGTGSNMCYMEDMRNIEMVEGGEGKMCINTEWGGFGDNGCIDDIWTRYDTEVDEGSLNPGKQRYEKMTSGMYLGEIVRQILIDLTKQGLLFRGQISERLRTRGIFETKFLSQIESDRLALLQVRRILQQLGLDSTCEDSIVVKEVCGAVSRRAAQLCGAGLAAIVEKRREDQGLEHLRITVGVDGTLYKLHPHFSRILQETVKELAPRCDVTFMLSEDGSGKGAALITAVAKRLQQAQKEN
Nature of the assay: HKDC1 hexokinase activators, dose response, biochemical, W721R variant (AID 504730). The class given is functional.

For assay [23], the target named is Hexokinase-1 (Homo sapiens, UniProt P19367). Put plainly: hexokinase 1 activators, dose response, selectivity assay for HKDC1 activator project, biochemical (AID 504762). The class given is functional.
Hexokinase-1, sequence (P19367 whole entry): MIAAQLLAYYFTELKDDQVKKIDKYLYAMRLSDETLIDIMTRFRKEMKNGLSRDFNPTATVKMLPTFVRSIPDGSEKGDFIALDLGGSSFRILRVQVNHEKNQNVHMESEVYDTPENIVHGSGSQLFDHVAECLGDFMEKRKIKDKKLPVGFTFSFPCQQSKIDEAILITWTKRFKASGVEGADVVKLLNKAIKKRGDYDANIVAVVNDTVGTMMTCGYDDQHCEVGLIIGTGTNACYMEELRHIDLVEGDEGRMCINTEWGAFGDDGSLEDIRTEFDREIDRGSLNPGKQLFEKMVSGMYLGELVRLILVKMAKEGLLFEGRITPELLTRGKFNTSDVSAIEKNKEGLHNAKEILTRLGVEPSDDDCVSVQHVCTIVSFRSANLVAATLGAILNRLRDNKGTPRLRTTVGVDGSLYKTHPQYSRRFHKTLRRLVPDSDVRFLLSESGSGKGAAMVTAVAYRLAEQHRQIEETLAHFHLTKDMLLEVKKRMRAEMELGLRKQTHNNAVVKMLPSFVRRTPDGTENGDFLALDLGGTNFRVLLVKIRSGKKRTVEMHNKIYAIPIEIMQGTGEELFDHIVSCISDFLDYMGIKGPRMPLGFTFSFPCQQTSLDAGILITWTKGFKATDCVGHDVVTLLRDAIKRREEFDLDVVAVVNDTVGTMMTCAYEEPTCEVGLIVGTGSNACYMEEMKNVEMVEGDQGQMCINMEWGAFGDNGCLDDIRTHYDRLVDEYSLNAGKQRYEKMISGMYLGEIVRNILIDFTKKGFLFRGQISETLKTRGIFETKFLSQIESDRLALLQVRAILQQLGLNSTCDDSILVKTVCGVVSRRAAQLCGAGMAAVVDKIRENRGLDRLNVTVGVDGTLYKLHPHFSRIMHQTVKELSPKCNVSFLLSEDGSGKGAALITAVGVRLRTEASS
Assay [24] has as its target T7, Type-1 angiotensin II receptor (Homo sapiens, UniProt P30556).
T7 sequence (P30556 whole entry): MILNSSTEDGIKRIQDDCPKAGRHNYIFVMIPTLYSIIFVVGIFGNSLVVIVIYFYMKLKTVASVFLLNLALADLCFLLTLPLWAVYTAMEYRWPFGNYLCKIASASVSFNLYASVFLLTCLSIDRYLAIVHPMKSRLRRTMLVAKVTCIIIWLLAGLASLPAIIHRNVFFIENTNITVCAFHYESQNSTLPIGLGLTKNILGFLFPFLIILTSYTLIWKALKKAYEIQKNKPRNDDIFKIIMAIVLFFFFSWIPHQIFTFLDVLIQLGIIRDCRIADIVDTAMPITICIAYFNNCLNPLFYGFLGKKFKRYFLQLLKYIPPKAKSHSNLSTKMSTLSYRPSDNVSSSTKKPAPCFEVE
Nature of the assay: AT1 receptor agonists, dose response, selectivity assay for APJ receptor agonist project, cell-based, uHTS hits (AID 488865).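 Also: beta-arrestin recruitment to AT1 measured by enzyme fragment complementation luminescence.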 The class given is functional.

Structures are written as SMILES. Activity calls are given as the source filed them. Some results are limits rather than exact numbers.

For orientation: IC50 means the midpoint of a concentration-inhibition curve. As usually defined, the EC50 is the concentration needed to bring the measured effect to its halfway point.

T1 sequence (P41145 whole entry): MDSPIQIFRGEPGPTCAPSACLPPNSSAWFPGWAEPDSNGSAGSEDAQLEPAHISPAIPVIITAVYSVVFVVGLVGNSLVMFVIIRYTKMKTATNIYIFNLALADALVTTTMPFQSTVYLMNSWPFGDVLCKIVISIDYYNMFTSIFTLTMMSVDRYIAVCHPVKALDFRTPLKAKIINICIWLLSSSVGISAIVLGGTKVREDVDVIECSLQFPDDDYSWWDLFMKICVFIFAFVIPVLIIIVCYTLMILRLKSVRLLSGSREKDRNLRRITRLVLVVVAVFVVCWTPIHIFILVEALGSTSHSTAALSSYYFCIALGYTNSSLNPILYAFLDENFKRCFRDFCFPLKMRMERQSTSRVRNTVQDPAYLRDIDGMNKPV
Delta-type opioid receptor, sequence (P41143 whole entry): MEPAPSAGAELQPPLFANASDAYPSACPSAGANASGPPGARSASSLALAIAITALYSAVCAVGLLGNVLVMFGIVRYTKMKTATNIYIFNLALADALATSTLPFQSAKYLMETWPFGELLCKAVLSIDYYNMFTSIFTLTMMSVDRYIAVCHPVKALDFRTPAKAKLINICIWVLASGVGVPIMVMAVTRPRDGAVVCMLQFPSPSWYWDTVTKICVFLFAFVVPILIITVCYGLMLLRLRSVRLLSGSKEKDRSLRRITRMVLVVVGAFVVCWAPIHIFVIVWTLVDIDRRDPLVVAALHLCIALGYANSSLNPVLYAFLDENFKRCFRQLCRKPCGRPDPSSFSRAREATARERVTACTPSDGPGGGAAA
Mu-type opioid receptor, sequence (P35372 whole entry): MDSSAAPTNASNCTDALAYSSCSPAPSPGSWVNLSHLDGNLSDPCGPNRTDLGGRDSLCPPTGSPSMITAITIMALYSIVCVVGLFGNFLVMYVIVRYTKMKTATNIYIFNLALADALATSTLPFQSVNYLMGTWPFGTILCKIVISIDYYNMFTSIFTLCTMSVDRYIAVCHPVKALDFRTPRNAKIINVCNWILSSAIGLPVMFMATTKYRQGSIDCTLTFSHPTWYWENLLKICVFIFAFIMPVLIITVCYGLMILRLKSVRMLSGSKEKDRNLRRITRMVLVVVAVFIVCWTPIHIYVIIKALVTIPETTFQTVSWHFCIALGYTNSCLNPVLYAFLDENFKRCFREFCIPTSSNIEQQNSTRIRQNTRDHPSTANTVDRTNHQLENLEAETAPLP

For the compound `CCc1ccc(S(=O)(=O)NCc2ccc(C(=O)NCCN(Cc3ccc(Br)cc3)C(C)C)cc2)cc1`, the IC50 is > 32 µM (inactive) in assay [1], 0.523 µM (active) in assay [2], > 32 µM (inactive) in assay [3] and 0.82 µM (active) in assay [4].
As to `COC(=O)c1c(NC(=O)c2ccc([N+](=O)[O-])o2)sc2c1CCN(C(C)C)C2`, the EC50 in [5] was 2.12 µM (inconclusive); in assay [6] it was 1.88 µM (inconclusive); in [7], 3.35 µM (active); in assay [8], 1.33 µM (active); in [9], 2.23 µM (inconclusive); in assay [10], 2.94 µM (active).
Consider `CN(C)CCCN(C(=O)c1ccc(S(=O)(=O)N2CCCCCC2)cc1)c1nc2ccc(Br)cc2s1`, for which the concentration for half-maximal inhibition (IC50) in [11] was 10.3 µM (active); in [12], > 20 µM (inactive); in assay [13] it was 13.4 µM (active).
Regarding `COC(=O)c1ccc(COc2ccc3cc(-c4ccc(F)cc4)c(=O)oc3c2)cc1`, the IC50 in [14], in assay [15], in assay [16], in assay [17], in assay [18] and in assay [19] was > 100 µM (inactive) throughout. Moreover, the IC50 in assay [20] is > 100 µM (inactive); in assay [21], 40 µM (active).
In the case of `CCc1c(C)c(C#N)c2nc3ccccc3n2c1NC`, the EC50 in assay [22] was 44.8 µM (inactive); in assay [23], 21.1 µM (inactive).
On to `CC1CCN(S(=O)(=O)c2ccc3nc(N4CCN(c5ccccc5)CC4)ccc3c2)CC1`, for which the EC50 in [24] is > 100 µM (inactive).
